Results from US6362166B1, “Antipicornaviral compounds and methods for their use and preparation” (Agouron Pharmaceuticals, Inc., priority 1996, dated 2002).
Where two headings read alike, the source gives them in different places.

Key:
HI-HeLa cells [1] = test: Cytotoxicity in mock-infected HI-HeLa cells (anticoxsackieviral assay, XTT); format: cell-based
Experimental: (§1) The ability of compounds to protect calls against CVB-3 infection was measured by the XTT dye reduction method, which is described in Weislow, O. S., R. Kiser, D. L. Fine, J. Bader, R. H. Shoemaker, and M. R. Boyd, 1989, J. Natl. Cancer Inst. 81:577-586, which is incorporated herein by reference. Specifically, HI-HeLa cells were infected wtih […] at a multiplicity of infection (m.o.i.) of 0.08 or mock-infected with medium only. Infected or mock-infected cells were resuspended at 8×10^5 cells per mL and incubated with appropriate concentrations of compound. One day later, XTT/PMS were added to test plates and the amount of formazan produced was quantified spectrophotometrically at 450/650 nm. […] The therapeutic index (TI) was calculated by dividing the CC50 by the EC50.
(§2) The Coxsackie strain B-3 (CVB-3) was purchased from American Type Culture Collection (ATCC). Virus stocks were propgated and antiviral assays were performed in Hi-HeLa cells (ATCC). Cells were grown in Minimal Essential Medium with 10% fetal bovine serum.

[2] = molecular target: T1, Recombinant Rhinovirus 3C protease (RVP) serotype-14 (Human rhinovirus 14, UniProt P03303); test: Inhibition of Rhinovirus Protease (fluorescence resonance energy transfer assay), serotype 14; format: biochemical, human rhinovirus (HRV); conditions: for kobs/I: progress curves in enzyme start experiments; for kinact/KI: pH 7.6, read-out: kobs/I
T1 construct: Recombinant Rhinovirus 3C proteases from serotypes 14, 16, 2 or 89; made in house

CVB-3 = test: Anticoxsackieviral HI-HeLa Cell Culture Assay (XTT dye reduction); format: cell-based, Coxsackie strain B-3 (CVB-3); conditions: HI-HeLa cells infected with CVB-3, m.o.i. 0.08, one day
Experimental: Specifically, HI-HeLa cells were infected wtih […] at a multiplicity of infection (m.o.i.) of 0.08 or mock-infected with medium only. Infected or mock-infected cells were resuspended at 8×10^5 cells per mL and incubated with appropriate concentrations of compound. One day later, XTT/PMS were added to test plates and the amount of formazan produced was quantified spectrophotometrically at 450/650 nm. […] The therapeutic index (TI) was calculated by dividing the CC50 by the EC50.
as §2

HRV-14 = test: Antirhinoviral HI-HeLa Cell Culture Assay (Cell Protection Assay, XTT dye reduction); format: cell-based, human rhinovirus (HRV) serotype-14; conditions: HI-HeLa cells infected with HRV-14, m.o.i. 0.13, two days, XTT, read-out: EC50
How it was run: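 HI-HeLa cells infected with HRV-14 at m.o.i. 0.13 or mock-infected, then incubated with compounds for two days. Cell protection read by XTT/PMS formazan at 450/650 nm; therapeutic index = CC50/EC50.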

[3] = molecular target: T2, Recombinant Rhinovirus 3C protease (RVP) serotype 2 (Human rhinovirus 2, UniProt P04936); test: Inhibition of Rhinovirus Protease (fluorescence resonance energy transfer assay), serotype 2; format: biochemical, human rhinovirus (HRV)
T2 construct: Recombinant Rhinovirus 3C proteases from serotypes 14, 16, 2 or 89; made in house
Experimental: (§3) Stock solution (50 mM, in DMSO) of various compounds were prepared; dilutions were in the same solvent. Recombinant Rhinovirus 3C proteases from serotypes 14, 16, 2 or 89 were prepared by the following standard chromatographic procedures: (1) ion exchange using Q Sepharose Fast Flow from Pharmacia; (2) affinity chromatography using Affi-Gel Blue from Biorad; and (3) sizing using Sephadex G-100 from Pharmacia. Assays contained 2% DMSO, 50 mM tris pH 7.6, 1 mM EDTA, a compound at the indicated concentrations, approximately 1 μM substrate, and 50-100 nM protease. […] The kobs/I values were obtained from reactions initiated by addition of enzyme rather than substrate. RVP activity is measured in the fluorescence resonance energy transfer assay. The substrate was (N-terminal) DABCYL-([…]Gyl)-EDANS. In the uncleaved peptide, the EDANS fluorescence was quenched by the proximal DABCYL moeity. When the peptide was cleaved, the quenching was relieved, and activity was measured as an increase in fluorescence signal.
(§4) In the above table, all data is RVP serotype-14 unless otherwise noted in parentheses. All strains of human rhinovirus (HRV) were purchased from American Type Culture Collection (ATCC), except for serotype 14, which was produced from the infectious cDNA clone constructed and supplied to us by Dr. Roland Rueckert at the Institute for Molecular Virology, University of Wisconsin, Madison, Wisc. […] The data in the column designated kobs/I was measured from progress curves in enzyme start experiments.

[4] = tested on: Human Rhinovirus-serotype 10 (HRV-10); test: Normal Human Bronchial Epithelial Cell Assay (MTT); format: cell-based; conditions: normal human bronchial cells, HRV-10 at m.o.i. 10, 3-4 days at 34° C., read-out: ED50 (the source's name)
Experimental: Normal human bronchial cells were obtained from cadavers and cultured. The cells were plated at 2×10^4 per well in a […] plate. They were allowed to adhere and grow for 24 hours in 200 μL of serum-free bronchial/tracheal epithelial cell growth medium at 37° C. with 5% CO2. Human Rhinovirus-serotype 10 (HRV-10) was purchased from American Type Culture Collection (ATCC). To start the assay, the supernatant was removed, and HRV-10 at an m.o.i. of 10 (virus particles/cell) was added to each well along with the appropriate amount of compound of formula I or II. The plate was then incubated at 34° C. After 3 hours the supernatant was removed, and 200 μL of media was added along with the same concentration of compound as used in the beginning of the assay. The plates were incubated for 3-4 days at 34° C. To determine the amount of cell growth, an MTT assay (0.5 mgs/mL), as described in Mosmann, T. J. J. Immunol. Methods 1983, 65, 55-63, which is incorporated herein by reference, was performed on the cells, and the plate was read at an optical density of 540 nm. The compounds were tested against control compound Pirodavir, obtained from Janssen Pharmaceuticals. The EC50 was measured as described above for the HI-HeLa Cell Culture Assay.

[5] = molecular target: T3, Recombinant Rhinovirus 3C protease (RVP) serotype 89 (Human rhinovirus A serotype 89, UniProt P07210); test: Inhibition of Rhinovirus Protease (fluorescence resonance energy transfer assay), serotype 89; format: biochemical, human rhinovirus (HRV)
T3 construct: Recombinant Rhinovirus 3C proteases from serotypes 14, 16, 2 or 89; made in house
Experimental: as §3
In the above table, all data is RVP serotype-14 unless otherwise noted in parentheses. […] The data in the column designated kobs/I was measured from progress curves in enzyme start experiments.

HI-HeLa cells [6] = test: Cytotoxicity in mock-infected HI-HeLa cells (antirhinoviral assay, XTT); format: cell-based
[7] = Cytotoxicity in mock-infected HI-HeLa cells (anticoxsackieviral assay, XTT); format: cell-based; conditions: human; mock-infected HI-HeLa cells; one day; XTT
Experimental: as §1, §2

[8] = molecular target: T4, Recombinant Rhinovirus 3C protease (RVP) serotype 16 (Human rhinovirus 16, UniProt Q82122); test: Inhibition of Rhinovirus Protease (fluorescence resonance energy transfer assay), serotype 16; format: biochemical, human rhinovirus (HRV); conditions: pH 7.6; RVP serotype 16; progress curves in enzyme start experiments; read-out: kobs/I
T4 construct: Recombinant Rhinovirus 3C proteases from serotypes 14, 16, 2 or 89; made in house
Experimental: as §3, §4

[9] = Cytotoxicity in mock-infected HI-HeLa cells (antirhinoviral assay, XTT); format: cell-based; conditions: human
[10] = progress curves in enzyme start experiments
[11] = mock-infected HI-HeLa cells, one day, XTT, read-out: CC50
[12] = RVP serotype-14, 10 minute preincubation, substrate start, read-out: INHIB (Ki)
[13] = mock-infected HI-HeLa cells, two days, XTT, read-out: CC50
[14] = pH 7.6, progress curves in enzyme start experiments, read-out: kobs/I

T1 sequence (P03303 1538-1719): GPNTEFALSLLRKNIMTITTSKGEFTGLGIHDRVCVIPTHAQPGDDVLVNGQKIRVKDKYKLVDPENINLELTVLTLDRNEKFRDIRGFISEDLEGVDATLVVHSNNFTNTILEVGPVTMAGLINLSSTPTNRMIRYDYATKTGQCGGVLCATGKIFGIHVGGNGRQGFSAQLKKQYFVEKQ
T2 sequence (P04936 1508-1690): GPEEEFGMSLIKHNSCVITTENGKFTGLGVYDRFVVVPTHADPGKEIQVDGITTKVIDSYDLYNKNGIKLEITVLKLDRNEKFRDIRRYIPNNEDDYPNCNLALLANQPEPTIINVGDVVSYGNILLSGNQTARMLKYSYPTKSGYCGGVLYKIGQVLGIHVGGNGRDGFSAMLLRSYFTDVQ
T3 sequence (P07210 1522-1704): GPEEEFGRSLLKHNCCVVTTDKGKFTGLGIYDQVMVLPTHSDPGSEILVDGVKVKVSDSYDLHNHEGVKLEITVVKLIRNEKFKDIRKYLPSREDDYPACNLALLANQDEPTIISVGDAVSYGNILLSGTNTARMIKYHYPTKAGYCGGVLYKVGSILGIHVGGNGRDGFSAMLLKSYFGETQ
T4 sequence (Q82122 1511-1693): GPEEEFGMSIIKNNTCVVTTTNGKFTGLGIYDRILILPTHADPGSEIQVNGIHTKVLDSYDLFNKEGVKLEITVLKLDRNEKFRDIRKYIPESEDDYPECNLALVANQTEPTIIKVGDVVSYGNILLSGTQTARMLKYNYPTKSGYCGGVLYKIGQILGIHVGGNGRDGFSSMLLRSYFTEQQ

| SMILES | kobs/I ([2]; RVP serotype-14) | EC50 (CVB-3) | EC50 (HRV-14) | EC50 [4] | CC50 at 1 day [7] | Ki [2] | kinact/KI [2] | EC50 (CVB-3; 24 h) | EC50 (HRV-14; Rhinovirus B, HRV14, 48 h) | CC50 at 2 days [9, 13] | further results |
| --- | --- | --- | --- | --- | --- | --- | --- | --- | --- | --- | --- |
| CCOC(=O)/C=C/[C@H](CCC(N)=O)NC(=O)[C@H](Cc1ccccc1)NC(=O)[C@H](CC(C)C)NC(=O)OCc1ccccc1 [Compound 3, Ethyl-3-(CBZ-L-Leu-L-Phe-L-Gln)-E-Propenoate] | 37,000 M-1 sec-1 | 39.8 µM | 0.61 µM | 0.04 µM |  |  |  |  |  |  | CC50 (HI-HeLa cells [1]): > 320 µM; INHIB (percent inhibition) ([2]; RVP serotype-14, 0.1 μM compound, 10 minute preincubation with 50 nM RVP): 81(0.1) percent; kobs/I [3, 10]: 1,900 M-1 sec-1; kobs/I [5, 10]: 3,400 M-1 sec-1; CC50 (HI-HeLa cells [6]): > 320 µM |
| CCOC(=O)/C=C/[C@H](CCC(N)=O)NC(=O)[C@H](Cc1ccc(F)cc1)NC(=O)c1cc2c(OC)cccc2[nH]1 [Compound 27] | 3,000 M-1 sec-1 | 20 µM | 3.5 µM | 0.07 µM |  |  |  |  |  |  | CC50 (HI-HeLa cells [1]; [11]): 103 µM; Ki [2, 12]: 20 µM; CC50 (HI-HeLa cells [6]; [13]): 160 µM |
| CC(=O)/C=C/[C@H](CCC(N)=O)NC(=O)[C@H](Cc1ccccc1)NC(=O)[C@H](CC(C)C)NC(=O)OCc1ccccc1 [Compound 13, 4-(CBZ-L-Leu-L-Phe-L-Gln)-E-3-Butene-2-one] |  |  |  |  | > 100 µM | 6.5 µM | 54000 M⁻¹ s⁻¹ | > 100 µM | 2 µM | 58.9 µM | kinact/KI [8]: 9000 M⁻¹ s⁻¹; kinact/KI [3, 14]: 2400 M⁻¹ s⁻¹; EC50 ([4]; Epithelial cell): 0.0004 µM; kinact/KI [5, 14]: 5500 M⁻¹ s⁻¹ |
| CON(C)C(=O)/C=C/[C@H](CCC(N)=O)NC(=O)[C@H](Cc1ccccc1)NC(=O)[C@H](CC(C)C)NC(=O)OCc1ccccc1 [Compound 37] |  |  |  |  | > 100 µM | 18.8 µM | 5900 M⁻¹ s⁻¹ | 17.8 µM | 4 µM | > 100 µM |  |
| CC(C)C[C@H](NC(=O)OCc1ccccc1)C(=O)N[C@@H](Cc1ccccc1)C(=O)N[C@H](/C=C/C(=O)N1CCCC1)CCC(N)=O [Compound 21, 1-Pyrrolidin-1-yl-3-(CBZ-L-Leu-L-Phe-L-Gln)-E-Propenone] |  |  |  |  | > 320 µM | 9.9 µM | 2100 M⁻¹ s⁻¹ | 158 µM | 22.4 µM | > 100 µM |  |
| CCOC(=O)/C(F)=C\[C@H](CCC(N)=O)NC(=O)[C@H](Cc1ccccc1)NC(=O)[C@H](CC(C)C)NC(=O)OCc1ccccc1 [Compound 8, Ethyl-2-Fluoro-3-(CBZ-L-Leu-L-Phe-L-Gln)-E-Propenoate] |  |  |  |  |  | 36 µM | 61 M⁻¹ s⁻¹ |  | > 320 µM | > 320 µM | melting point: 210 to 211 °C |
| CC(C)C[C@H](NC(=O)OCc1ccccc1)C(=O)N[C@@H](Cc1ccccc1)C(=O)N[C@H](/C=C/C(=O)N(C)C)CCC(N)=O [Compound 22, N,N-Dimethyl-3-(CBZ-L-Leu-L-Phe-L-Gln)-E-Propenamide] |  |  |  |  |  | 4.3 µM | 1300 M⁻¹ s⁻¹ |  | 56.2 µM | 251 µM | melting point: 174 to 175 °C (dec.) |
| CCOC(=O)c1ccc(OCCC2CCN(c3ccc(C)nn3)CC2)cc1 [Pirodavir, reference compound] |  |  |  |  | > 100 µM |  |  | > 100 µM | 0.03 µM |  | EC50 ([4]; Epithelial cell): 0.0075 µM; CC50 at 2 days [9]: > 10 µM |
| COC(=O)/C=C/[C@H](CCC(N)=O)NC(=O)[C@H](Cc1ccccc1)NC(=O)[C@H](CC(C)C)NC(=O)OCc1ccccc1 [Compound 11, Methyl-3-(CBZ-L-Leu-L-Phe-L-Gln)-E-Propenoate] | 20,000 M-1 sec-1 | 8.9 µM | 1.3 µM | 0.0007 µM |  |  |  |  |  |  | CC50 (HI-HeLa cells [1]; [11]): > 320 µM; Ki [2, 12]: 28 µM; CC50 (HI-HeLa cells [6]): > 320 µM |
